Test results as given in PMC5862592, “CDK8/19 inhibition induces premature G1/S transition and ATR-dependent cell death in prostate cancer cells” (Oncotarget, 2018).
Where two headings read alike, the source gives them in different places.

How the values were obtained:
Assay in all cases: biochemical
Parameters in all cases: KINOMEscan active site-directed competition binding assay (DiscoveRx), 456 kinases, per cent of control at 300 nM
Settings in all cases: read-out: Percent of Control (%)
PIK3CA(E545K) = PIK3CA(E545K) (Homo sapiens, UniProt P42336, E545K)
In short: (§1)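 Each compound is tested at 300 nmol/L against a panel of 456 kinases. Interaction is quantified by competition for the kinase active site.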

FGFR3(G697C) = FGFR3(G697C) (Homo sapiens, UniProt P22607, G697C)
In short: as §1

[1] = biological target: T1, ABL1(Q252H)-nonphosphorylated (Homo sapiens, UniProt P00519, Q252H)
T1 construct: nonphosphorylated
In short: as §1

PIK3CA(E545A) = PIK3CA(E545A) (Homo sapiens, UniProt P42336, E545A)
In short: as §1

MEK1 = biological target: T2, MEK1 (Homo sapiens, UniProt Q02750)
T2 construct: gene MAP2K1
In short: as §1

MRCKB = biological target: T3, MRCKB (Homo sapiens, UniProt Q9Y5S2)
T3 construct: gene CDC42BPB
In short: as §1

ERK4 = biological target: T4, ERK4 (Homo sapiens, UniProt P31152)
T4 construct: gene MAPK4
In short: as §1

AKT3 = AKT3 (Homo sapiens, UniProt Q9Y243)
In short: as §1

AURKB = AURKB (Homo sapiens, UniProt Q96GD4)
In short: as §1

STK35 = STK35 (Homo sapiens, UniProt Q8TDR2)
In short: as §1

MST3 = biological target: T5, MST3 (Homo sapiens, UniProt Q9Y6E0)
T5 construct: gene STK24
In short: as §1

PIK3C2G = PIK3C2G (Homo sapiens, UniProt O75747)
In short: as §1

PAK1 = PAK1 (Homo sapiens, UniProt Q13153)
In short: as §1

ADCK3 = biological target: T6, ADCK3 (Homo sapiens, UniProt Q8NI60)
T6 construct: gene COQ8A
In short: as §1

MERTK = MERTK (Homo sapiens, UniProt Q12866)
In short: as §1

WNK1 = WNK1 (Homo sapiens, UniProt Q9H4A3)
In short: as §1

PLK4 = PLK4 (Homo sapiens, UniProt O00444)
In short: as §1

CAMK1 = CAMK1 (Homo sapiens, UniProt Q14012)
In short: as §1

SGK3 = SGK3 (Homo sapiens, UniProt Q96BR1)
In short: as §1

ACVR2B = ACVR2B (Homo sapiens, UniProt Q13705)
In short: as §1

CAMK2G = CAMK2G (Homo sapiens, UniProt Q13555)
In short: as §1

SNARK = biological target: T7, SNARK (Homo sapiens, UniProt Q9H093)
T7 construct: gene NUAK2
In short: as §1

PLK4, sequence (O00444 whole entry): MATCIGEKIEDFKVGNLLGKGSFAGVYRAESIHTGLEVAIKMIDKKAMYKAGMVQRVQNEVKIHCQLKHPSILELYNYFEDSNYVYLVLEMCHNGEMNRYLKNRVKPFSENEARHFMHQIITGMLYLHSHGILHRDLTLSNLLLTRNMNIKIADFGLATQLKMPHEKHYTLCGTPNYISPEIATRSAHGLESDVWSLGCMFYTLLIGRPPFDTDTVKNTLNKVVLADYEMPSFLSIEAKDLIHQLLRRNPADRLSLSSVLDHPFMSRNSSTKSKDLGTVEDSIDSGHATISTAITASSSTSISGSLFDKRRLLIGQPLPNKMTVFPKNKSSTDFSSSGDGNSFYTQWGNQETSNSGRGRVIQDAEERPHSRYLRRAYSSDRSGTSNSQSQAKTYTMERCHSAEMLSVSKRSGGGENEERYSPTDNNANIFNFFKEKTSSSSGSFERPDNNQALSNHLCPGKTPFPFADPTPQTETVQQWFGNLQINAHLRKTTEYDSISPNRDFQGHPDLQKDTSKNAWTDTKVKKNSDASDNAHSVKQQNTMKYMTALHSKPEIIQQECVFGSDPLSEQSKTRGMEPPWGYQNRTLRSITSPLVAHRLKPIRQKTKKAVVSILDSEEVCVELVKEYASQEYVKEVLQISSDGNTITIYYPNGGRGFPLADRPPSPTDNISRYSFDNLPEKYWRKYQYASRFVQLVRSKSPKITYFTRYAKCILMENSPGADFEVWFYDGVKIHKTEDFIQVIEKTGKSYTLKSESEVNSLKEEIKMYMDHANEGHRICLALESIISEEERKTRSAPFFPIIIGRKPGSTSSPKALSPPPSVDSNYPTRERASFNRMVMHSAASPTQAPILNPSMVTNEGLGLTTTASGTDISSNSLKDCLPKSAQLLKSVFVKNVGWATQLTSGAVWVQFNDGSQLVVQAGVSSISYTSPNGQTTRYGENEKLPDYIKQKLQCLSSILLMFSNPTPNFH
PIK3CA(E545A), sequence (P42336 whole entry E545A): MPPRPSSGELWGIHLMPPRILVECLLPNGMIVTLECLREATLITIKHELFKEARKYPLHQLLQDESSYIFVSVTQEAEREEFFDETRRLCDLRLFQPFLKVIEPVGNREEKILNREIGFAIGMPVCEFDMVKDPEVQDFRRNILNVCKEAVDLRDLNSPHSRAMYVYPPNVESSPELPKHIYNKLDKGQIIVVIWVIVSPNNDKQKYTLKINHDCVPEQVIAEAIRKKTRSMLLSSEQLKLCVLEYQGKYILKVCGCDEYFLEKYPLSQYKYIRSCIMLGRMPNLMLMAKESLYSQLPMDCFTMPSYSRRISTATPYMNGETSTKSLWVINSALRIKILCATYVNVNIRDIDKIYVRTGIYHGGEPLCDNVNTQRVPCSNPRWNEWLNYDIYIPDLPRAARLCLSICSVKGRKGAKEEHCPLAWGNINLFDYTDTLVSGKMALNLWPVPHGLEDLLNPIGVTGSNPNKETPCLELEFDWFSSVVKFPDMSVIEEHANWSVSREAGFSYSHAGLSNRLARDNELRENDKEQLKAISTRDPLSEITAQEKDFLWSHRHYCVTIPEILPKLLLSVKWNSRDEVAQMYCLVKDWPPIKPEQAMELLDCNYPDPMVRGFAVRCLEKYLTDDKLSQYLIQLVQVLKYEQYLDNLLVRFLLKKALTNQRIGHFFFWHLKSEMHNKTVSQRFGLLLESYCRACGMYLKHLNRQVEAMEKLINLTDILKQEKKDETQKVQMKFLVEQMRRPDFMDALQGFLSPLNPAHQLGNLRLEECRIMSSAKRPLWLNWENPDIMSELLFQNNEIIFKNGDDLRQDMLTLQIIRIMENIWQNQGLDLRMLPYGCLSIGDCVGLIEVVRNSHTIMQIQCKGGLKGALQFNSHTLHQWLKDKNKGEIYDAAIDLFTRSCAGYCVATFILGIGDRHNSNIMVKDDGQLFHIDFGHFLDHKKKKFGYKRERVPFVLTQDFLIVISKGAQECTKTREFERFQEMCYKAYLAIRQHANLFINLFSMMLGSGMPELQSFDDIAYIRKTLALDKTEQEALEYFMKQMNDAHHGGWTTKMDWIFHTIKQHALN
T5 sequence (Q9Y6E0 whole entry): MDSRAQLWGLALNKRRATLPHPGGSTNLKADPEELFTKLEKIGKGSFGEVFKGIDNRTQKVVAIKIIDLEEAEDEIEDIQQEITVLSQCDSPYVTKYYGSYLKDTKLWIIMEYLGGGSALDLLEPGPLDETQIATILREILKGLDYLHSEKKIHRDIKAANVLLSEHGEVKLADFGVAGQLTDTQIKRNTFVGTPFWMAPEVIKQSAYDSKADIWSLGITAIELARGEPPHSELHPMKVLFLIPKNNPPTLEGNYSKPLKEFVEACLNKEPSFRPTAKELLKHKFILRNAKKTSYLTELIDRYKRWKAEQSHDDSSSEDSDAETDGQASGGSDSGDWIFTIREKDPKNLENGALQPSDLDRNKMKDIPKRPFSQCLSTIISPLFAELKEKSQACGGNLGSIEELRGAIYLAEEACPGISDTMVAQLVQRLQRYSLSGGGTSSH
T3 sequence (Q9Y5S2 whole entry): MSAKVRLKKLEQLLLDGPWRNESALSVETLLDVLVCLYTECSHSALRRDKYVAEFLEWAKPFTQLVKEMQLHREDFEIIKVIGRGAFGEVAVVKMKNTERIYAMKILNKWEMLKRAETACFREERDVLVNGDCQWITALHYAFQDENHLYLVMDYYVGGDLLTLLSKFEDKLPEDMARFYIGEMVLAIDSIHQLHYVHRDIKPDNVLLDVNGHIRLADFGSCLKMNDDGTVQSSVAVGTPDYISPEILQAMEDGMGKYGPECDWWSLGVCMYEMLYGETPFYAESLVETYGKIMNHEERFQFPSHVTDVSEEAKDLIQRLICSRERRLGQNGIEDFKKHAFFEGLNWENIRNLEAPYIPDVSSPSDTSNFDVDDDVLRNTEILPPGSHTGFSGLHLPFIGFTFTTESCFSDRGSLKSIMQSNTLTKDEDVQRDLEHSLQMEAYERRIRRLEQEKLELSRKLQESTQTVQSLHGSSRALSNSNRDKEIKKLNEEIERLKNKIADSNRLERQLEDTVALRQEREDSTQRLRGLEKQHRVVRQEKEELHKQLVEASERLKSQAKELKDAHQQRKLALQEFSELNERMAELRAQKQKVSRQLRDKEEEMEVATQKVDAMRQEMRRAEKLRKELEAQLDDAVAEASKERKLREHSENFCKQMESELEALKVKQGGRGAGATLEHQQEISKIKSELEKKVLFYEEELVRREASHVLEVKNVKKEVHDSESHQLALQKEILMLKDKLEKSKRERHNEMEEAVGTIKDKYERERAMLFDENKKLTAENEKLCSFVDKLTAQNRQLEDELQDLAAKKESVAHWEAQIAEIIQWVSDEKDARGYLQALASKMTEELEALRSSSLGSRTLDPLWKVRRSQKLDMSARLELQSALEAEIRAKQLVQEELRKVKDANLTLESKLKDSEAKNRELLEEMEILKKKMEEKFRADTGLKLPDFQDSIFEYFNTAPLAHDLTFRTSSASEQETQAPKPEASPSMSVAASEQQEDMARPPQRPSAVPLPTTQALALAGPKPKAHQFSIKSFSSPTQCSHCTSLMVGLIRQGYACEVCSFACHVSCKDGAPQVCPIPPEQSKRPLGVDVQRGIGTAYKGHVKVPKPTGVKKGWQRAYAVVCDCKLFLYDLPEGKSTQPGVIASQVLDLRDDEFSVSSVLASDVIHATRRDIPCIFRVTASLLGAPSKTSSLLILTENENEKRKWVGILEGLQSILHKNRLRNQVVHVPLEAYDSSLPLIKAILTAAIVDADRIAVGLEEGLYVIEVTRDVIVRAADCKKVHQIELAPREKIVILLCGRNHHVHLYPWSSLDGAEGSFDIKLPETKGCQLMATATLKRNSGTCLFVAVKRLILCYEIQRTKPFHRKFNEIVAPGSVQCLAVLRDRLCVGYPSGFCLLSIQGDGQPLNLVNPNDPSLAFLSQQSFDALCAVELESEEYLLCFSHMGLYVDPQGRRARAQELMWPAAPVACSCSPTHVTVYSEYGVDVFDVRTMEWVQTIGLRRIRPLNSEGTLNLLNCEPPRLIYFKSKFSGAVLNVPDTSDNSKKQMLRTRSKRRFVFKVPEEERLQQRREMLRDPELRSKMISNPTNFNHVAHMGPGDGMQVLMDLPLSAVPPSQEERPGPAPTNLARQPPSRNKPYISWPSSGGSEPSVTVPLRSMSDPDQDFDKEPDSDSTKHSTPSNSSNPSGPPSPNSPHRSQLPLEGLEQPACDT
PIK3CA(E545K), sequence (P42336 whole entry E545K): as the sequence (P42336 whole entry E545A) above, with A545K counted along it
FGFR3(G697C), sequence (P22607 whole entry G697C): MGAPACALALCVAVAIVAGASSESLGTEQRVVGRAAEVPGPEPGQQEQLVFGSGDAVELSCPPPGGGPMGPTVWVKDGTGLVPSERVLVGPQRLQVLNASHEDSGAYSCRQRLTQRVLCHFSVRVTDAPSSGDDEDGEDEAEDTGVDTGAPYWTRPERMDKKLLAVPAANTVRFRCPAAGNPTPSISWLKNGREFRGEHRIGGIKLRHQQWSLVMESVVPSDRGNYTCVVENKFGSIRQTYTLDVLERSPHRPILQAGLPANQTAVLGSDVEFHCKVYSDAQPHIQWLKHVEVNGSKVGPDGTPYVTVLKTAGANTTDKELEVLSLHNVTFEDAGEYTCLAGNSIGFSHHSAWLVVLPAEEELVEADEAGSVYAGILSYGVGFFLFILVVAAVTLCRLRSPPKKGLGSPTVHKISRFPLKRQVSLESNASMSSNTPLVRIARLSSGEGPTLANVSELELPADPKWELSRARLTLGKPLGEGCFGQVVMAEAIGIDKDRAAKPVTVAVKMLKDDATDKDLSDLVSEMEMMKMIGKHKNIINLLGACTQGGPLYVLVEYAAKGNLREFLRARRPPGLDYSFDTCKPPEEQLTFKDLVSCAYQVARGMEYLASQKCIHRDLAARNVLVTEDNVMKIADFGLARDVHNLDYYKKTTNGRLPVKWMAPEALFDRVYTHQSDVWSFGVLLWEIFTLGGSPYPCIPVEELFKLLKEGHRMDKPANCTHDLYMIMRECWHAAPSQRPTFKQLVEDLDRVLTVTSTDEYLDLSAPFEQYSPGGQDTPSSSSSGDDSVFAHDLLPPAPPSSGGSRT

With `O=C(/C=C/c1cnccc1-c1ccc(F)cc1)Nc1ccc(CCc2nnco2)cc1` [T-418, (2E)-3-(4-(4-fluorophenyl)pyridin-3-yl)-N-(4-(2-(1,3,4-oxadiazol-2-yl)ethyl)phenyl)acrylamide] as the molecule, how does the remaining binding at 0.3 µM (PIK3CA(E545K); sheet T-418) read?
Its remaining binding at 0.3 µM is 82%.

And the remaining binding at 0.3 µM (FGFR3(G697C); sheet T-418)?
Its remaining binding at 0.3 µM is 66%.

And the remaining binding at 0.3 µM ([1]; sheet T-418)?
The remaining binding at 0.3 µM was 83%.

What about the remaining binding at 0.3 µM (PIK3CA(E545A); sheet T-418) of the same molecule?
Its remaining binding at 0.3 µM is 78%.

What about the remaining binding at 0.3 µM (MEK1; sheet T-418) of the same molecule?
The remaining binding at 0.3 µM was 100%.

And the remaining binding at 0.3 µM (MRCKB; sheet T-418)?
Its remaining binding at 0.3 µM is 100%.

What about the remaining binding at 0.3 µM (ERK4; sheet T-418) of the same molecule?
Its remaining binding at 0.3 µM is 100%.

What about the remaining binding at 0.3 µM (AKT3; sheet T-418) of the same molecule?
The remaining binding at 0.3 µM was 100%.

And the remaining binding at 0.3 µM (AURKB; sheet T-418)?
Its remaining binding at 0.3 µM is 100%.

What about the remaining binding at 0.3 µM (STK35; sheet T-418) of the same molecule?
Its remaining binding at 0.3 µM is 98%.

And the remaining binding at 0.3 µM (MST3; sheet T-418)?
Its remaining binding at 0.3 µM is 100%.

What about the remaining binding at 0.3 µM (PIK3C2G; sheet T-418) of the same molecule?
Its remaining binding at 0.3 µM is 95%.

What about the remaining binding at 0.3 µM (PAK1; sheet T-418) of the same molecule?
The remaining binding at 0.3 µM was 76%.

And the remaining binding at 0.3 µM (ADCK3; sheet T-418)?
Its remaining binding at 0.3 µM is 100%.

And the remaining binding at 0.3 µM (MERTK; sheet T-418)?
Its remaining binding at 0.3 µM is 100%.

What about the remaining binding at 0.3 µM (WNK1; sheet T-418) of the same molecule?
Its remaining binding at 0.3 µM is 100%.

What about the remaining binding at 0.3 µM (PLK4; sheet T-418) of the same molecule?
Its remaining binding at 0.3 µM is 78%.

What about the remaining binding at 0.3 µM (CAMK1; sheet T-418) of the same molecule?
The remaining binding at 0.3 µM was 70%.

What about the remaining binding at 0.3 µM (SGK3; sheet T-418) of the same molecule?
The remaining binding at 0.3 µM was 62%.

And the remaining binding at 0.3 µM (ACVR2B; sheet T-418)?
Its remaining binding at 0.3 µM is 80%.

What about the remaining binding at 0.3 µM (CAMK2G; sheet T-418) of the same molecule?
Its remaining binding at 0.3 µM is 94%.

And the remaining binding at 0.3 µM (SNARK; sheet T-418)?
Its remaining binding at 0.3 µM is 60%.

How did the remaining binding at 0.3 µM (PIK3CA(E545K)) turn out when `Cc1ncccc1Oc1sc(C(N)=O)c2c1-c1c(cnn1C)CC2` [T-474, 1-methyl-8-((2-methylpyridin-3-yl)oxy)-4,5-dihydro-1H-thieno[3,4-g]indazole-6-carboxamide] was run?
Its remaining binding at 0.3 µM is 100%.

What about the remaining binding at 0.3 µM (FGFR3(G697C)) of the same molecule?
The remaining binding at 0.3 µM was 59%.

What about the remaining binding at 0.3 µM [1] of the same molecule?
Its remaining binding at 0.3 µM is 100%.

What about the remaining binding at 0.3 µM (PIK3CA(E545A)) of the same molecule?
Its remaining binding at 0.3 µM is 69%.

What about the remaining binding at 0.3 µM (MEK1) of the same molecule?
The remaining binding at 0.3 µM was 100%.

And the remaining binding at 0.3 µM (MRCKB)?
Its remaining binding at 0.3 µM is 100%.

What about the remaining binding at 0.3 µM (ERK4) of the same molecule?
Its remaining binding at 0.3 µM is 100%.

What about the remaining binding at 0.3 µM (AKT3) of the same molecule?
Its remaining binding at 0.3 µM is 97%.

And the remaining binding at 0.3 µM (AURKB)?
The remaining binding at 0.3 µM was 100%.

What about the remaining binding at 0.3 µM (STK35) of the same molecule?
Its remaining binding at 0.3 µM is 100%.

And the remaining binding at 0.3 µM (MST3)?
The remaining binding at 0.3 µM was 100%.

And the remaining binding at 0.3 µM (PIK3C2G)?
Its remaining binding at 0.3 µM is 92%.

And the remaining binding at 0.3 µM (PAK1)?
Its remaining binding at 0.3 µM is 94%.

And the remaining binding at 0.3 µM (ADCK3)?
Its remaining binding at 0.3 µM is 90%.

And the remaining binding at 0.3 µM (MERTK)?
The remaining binding at 0.3 µM was 100%.

And the remaining binding at 0.3 µM (WNK1)?
Its remaining binding at 0.3 µM is 100%.

What about the remaining binding at 0.3 µM (PLK4) of the same molecule?
The remaining binding at 0.3 µM was 86%.

What about the remaining binding at 0.3 µM (CAMK1) of the same molecule?
Its remaining binding at 0.3 µM is 66%.

What about the remaining binding at 0.3 µM (SGK3) of the same molecule?
The remaining binding at 0.3 µM was 61%.

What about the remaining binding at 0.3 µM (ACVR2B) of the same molecule?
The remaining binding at 0.3 µM was 81%.

And the remaining binding at 0.3 µM (CAMK2G)?
The remaining binding at 0.3 µM was 97%.

And the remaining binding at 0.3 µM (SNARK)?
Its remaining binding at 0.3 µM is 74%.
